We go through 8 compounds from article PMC7866854, “Pseudo-Dipeptide Bearing α,α-Difluoromethyl Ketone Moiety as Electrophilic Warhead with Activity against Coronaviruses” (International Journal of Molecular Sciences, 2021).

Where two headings read alike, the source gives them in different places.

The target of one data set is HIV-1 protease. Details: method as in doi:10.1039/c39910000110. The following applies: read-out: Ki, HIV protease inhibitor; cited from earlier work.
For another data set, the system named is SARS-CoV M^pro. The following applies: read-out: IC50, SARS-CoV Mpro inhibitor; cited from earlier work.
For data set [1], the target named is Anopheles gambiae acetylcholinesterase (AgAChE). The following applies: read-out: IC50, AgAChE inhibitor; cited from earlier work.
Data set [2] concerns the target bovine pancreatic α-chymotrypsin. Details: method as in PMID 2353815, PMID 3527255. The conditions noted are these: read-out: Ki, α-chymotrypsin inhibitor; cited from earlier work.
For a further data set, the system named is hCoV-229E. The data set is described as follows: CPE-based antiviral assay (CellTiter-Glo cell viability as surrogate of CPE) in MRC5 cells infected with hCoV-229E. The following applies: Human coronavirus 229E; for EC50: read-out: EC50, inhibition of hCoV-229E replication.
A short description of a further data set: in vitro. The conditions noted are these: human.
The subject of the next data set is SARS-CoV-2 M^pro. The conditions noted are these: read-out: Exp. EC50; listed under SARS-CoV-2 Mpro; cited from earlier work.

In general, Ki refers to a dissociation constant, usually derived from enzyme kinetics or from competition with a known ligand. `CC(C)C(NC(=O)OCc1ccccc1)C(=O)NC(Cc1ccccc1)C(=O)C(F)(F)C(Cc1ccccc1)NC(=O)C(NC(=O)OCc1ccccc1)C(C)C` (stereo not shown) [compound 6]: the inhibitory constant (Ki) on HIV-1 protease is 0.0001 µM.

For orientation: IC50 means the midpoint of a concentration-inhibition curve. Consider `CC(C)CC(NC(=O)OCc1ccccc1)C(=O)NC(Cc1ccccc1)C(O)(O)C(F)(F)F` (stereo not drawn) [compound 7, Z-Leu-Phe-CF3], for which the IC50 in the data set on SARS-CoV M^pro is 10 µM.

`CC(C)n1cc(C(=O)C(F)F)cn1` [compound 2]: in data set [1], the IC50 is 0.802 µM.

For `CC(=O)NC(CC(C)C)C(=O)NC(Cc1ccccc1)C(=O)C(F)F` (stereo not drawn) [compound 4, Ac-Leu-Phe-CHF2], the Ki in data set [2] was 25 µM.

As for `CC(C)(C)c1cccc(C(=O)C(F)F)c1` [compound 1], in data set [1], the IC50 was 0.00605 µM.

One may read the EC50 as the concentration giving half of the maximal effect. In general, EC90 refers to the point of the concentration-response curve where the effect stands at 90%. For `CC(C)CC(NC(=O)OCc1ccccc1)C(=O)NC(CCc1ccccc1)C(O)(O)C(F)F` (stereo not shown) [compound 8, Z-Leu-Homophe-CHF2], the EC50 with hCoV-229E (MRC5, 72 h) stood at 12.9 ± 1.22 µM. Moreover, the concentration for an effect of 90% (EC90) with hCoV-229E (MRC5 cells, 100 PFU/well, 72 h p.i., CellTiter-Glo, read-out: EC90, inhibition of hCoV-229E replication) amounted to 38.6 ± 0.67 µM.

`CCC(CC)COC(=O)[C@H](C)N[P@](=O)(OC[C@H]1O[C@@](C#N)(c2ccc3c(N)ncnn23)[C@H](O)[C@@H]1O)Oc1ccccc1` [remdesivir]: the EC50 in the data set on hCoV-229E (MRC5 cells, 100 PFU/well, 72 h p.i., CellTiter-Glo) is 0.034 ± 0.0025 µM. Further, the CC50 in the data set “in vitro” was > 10 µM.

For `Cc1cc(C(=O)N[C@@H](C)C(=O)N[C@H](C(=O)N[C@@H](CC(C)C)C(=O)N[C@H](/C=C\C(=O)OCc2ccccc2)C[C@@H]2CCNC2=O)C(C)C)no1` [N3], the 50% effective concentration (EC50) in the data set with SARS-CoV-2 M^pro is 16.8 ± 1.7 µM.
